# Results published in PubChem BioAssay AID624254 (Broad Institute, 2012).
# Active and inactive are the calls of the source. The rule behind the calls is not given here.
# Assay: Luciferase light induction in v cholerae bh1651, agonist dose response, confirmatory (AID 624254)
# Conditions: V. cholerae BH1651 luxOD47E, luciferase light induction, 6 h; at 50 µM (top of the series)
row,Structure (SMILES),activation (light increase)
1,C[C@@H]1CN([C@H](C)CO)C(=O)c2cccc(NC(=O)C3CC3)c2O[C@H]1CN(C)S(=O)(=O)c1cccs1,inactive
2,CC(C)(C)c1nc(N2CCN(C(=O)c3ccco3)CC2)c2nnn(Cc3ccccc3)c2n1,inactive
3,COCCNC(=O)CN1CCN(C(c2ccccc2)c2ccccc2)CC1,inactive
4,Cn1cccc1C(=O)OCc1cc(-c2ccco2)on1,inactive
5,O=C(NCc1ccc2c(c1)OCO2)C1CCCN1C(=O)Nc1cccc(Cl)c1 (stereo not given),inactive
6,CCC1(CC)NC(=O)N(CC(=O)OCC(=O)NC(=O)c2ccccc2OC)C1=O,inactive
7,CCn1c(SCC(=O)Nc2ccc3c(c2)OCCO3)nnc1-c1ccccn1,inactive
8,CN(C)S(=O)(=O)c1cccc(NC(=O)COC(=O)c2ccc(Br)o2)c1,inactive
9,O=C(NCc1ccccn1)c1c(O)c2c([nH]c1=O)CCCC2,inactive
10,CCN(C(=O)COc1ncnc2ccc(Br)cc12)C1CCS(=O)(=O)C1 (stereo not given),inactive
11,Cc1cc(N2CCC(C)CC2)nc2ccc(N3C(=O)CCC3=O)cc12,inactive
12,CC(=O)c1cc2c(cc1NC(=O)Cc1c(C)noc1C)OCO2,inactive
13,CC1CN(C(=O)COC(=O)c2cccc(NS(=O)(=O)c3ccccc3)c2)CC(C)O1 (stereo not given),inactive
14,Fc1ccc(NCc2cn3ccccc3n2)cc1,inactive
15,CN(C)C(=O)c1ccccc1NS(=O)(=O)c1cn(C)cn1,inactive
16,CCOC(=O)Cc1c(C)[nH]c(=S)[nH]c1=O,inactive
17,Cc1cc(C(=O)OCC(=O)NC2CCCCC2)c(C)o1,inactive
18,C=Cn1c(C(=O)O)ccc1-c1cccs1,inactive
19,COCCN(C(=O)C1CCC1)c1nnc(-c2cccnc2)s1,inactive
20,Cn1cnc(S(=O)(=O)Nc2ccc(F)cc2)c1,inactive
21,COc1ccc(CNC(=O)CSc2nc3c(oc4ccccc43)c(=O)n2CC2CCCO2)cc1 (stereo not given),inactive
22,COc1ccc(-c2nnc3c4ccccc4c(C)nn23)cc1,inactive
23,O=C(OCc1cc(=O)n2ccsc2n1)c1ccc(OC(F)F)cc1,inactive
24,Cc1ccccc1OC(C)c1nc(-c2ccccc2)no1 (stereo not given),inactive

row,Structure (SMILES),activation (light increase)
1,O=C(COC(=O)/C=C/c1ccc(OC(F)F)cc1)NC1CCCCCC1,inactive
2,Cc1ccc(OCCNC(=O)c2ccc(C)o2)cc1,inactive
3,CC(C)CC(=O)Nc1ccccc1N1CCN(C(=O)c2ccccc2)CC1,inactive
4,C[C@@H]1CN([C@@H](C)CO)C(=O)c2cccc(NC(=O)Nc3ccc4c(c3)OCO4)c2O[C@@H]1CN(C)S(=O)(=O)c1ccccc1,inactive
5,Cc1ccccc1-n1ccnc1SCC(=O)NCC1CCCO1 (stereo not given),inactive
6,COc1ccc(NS(=O)(=O)c2cccc(C(=O)N3CCCC(C)C3)c2)cc1 (stereo not given),inactive
7,O=C(Nc1ccc2oc(-c3ccc4ccccc4c3)nc2c1)c1cccs1,inactive
8,CC(=O)Nc1nonc1NC(C)=O,inactive
9,Cc1ccc2cc(C(c3nnnn3C3CCCC3)N3CCN(c4ccc(F)cc4)CC3)c(=O)[nH]c2c1 (stereo not given),inactive
10,Cc1onc(-c2ccccc2)c1C(=O)Nc1nc2c(s1)CCCC2,inactive
11,Cn1cnc(S(=O)(=O)Nc2ccc(OC(F)(F)F)cc2)c1,inactive
12,Cn1ccnc1S(=O)(=O)Nc1ccc(OC(F)(F)F)cc1,inactive
13,Cc1ccc(C2(C)NC(=O)N(CC(=O)NCCC3=CCCCC3)C2=O)cc1 (stereo not given),inactive
14,C[C@H](CO)N1C[C@H](C)[C@H](CN(C)S(=O)(=O)c2cccs2)Oc2c(NC(=O)C3CC3)cccc2C1=O,inactive
15,Cn1cnc(S(=O)(=O)Nc2ccccc2)c1,inactive
16,CC(C)c1ccc(C(=O)OCC(=O)NC2CCCC2)cc1,inactive
17,CCN(CC)S(=O)(=O)c1cccc(C(=O)OCC(=O)C23CC4CC(CC(C4)C2)C3)c1,inactive
18,CCOC(=O)C1CCCN(Cc2cccc(Cl)c2)C1 (stereo not given),inactive
19,Cc1noc(C)c1NC(=O)Nc1cccc2c1O[C@H](CN(C)S(=O)(=O)c1ccccc1)[C@@H](C)CN([C@H](C)CO)C2=O,inactive
20,COc1ccccc1NC(=O)COC(=O)c1cc(C)oc1C,inactive
21,COC(=O)c1cnn(-c2nc(-c3ccccc3)cs2)c1N,inactive
22,CC(=O)C(CC(=O)N1CCCc2ccccc21)C(=O)Nc1ccc(F)cc1 (stereo not given),inactive
23,Cc1ccc(S(=O)(=O)N(C)C[C@H]2Oc3c(NC(=O)Nc4ccc5c(c4)OCO5)cccc3C(=O)N([C@H](C)CO)C[C@@H]2C)cc1,inactive
24,Cc1ccc2occ(C(c3nnnn3Cc3ccccc3)N3CCOCC3)c(=O)c2c1 (stereo not given),inactive

row,Structure (SMILES),activation (light increase)
1,COc1cc2c(c(OC)c1OC)C(c1ccc(C)cc1)CC(=O)O2 (stereo not given),inactive
2,COc1cccc(CNC(=O)C2CSC3(C)CCC(=O)N23)c1 (stereo not given),inactive
3,Nc1nc(SCc2nc3sc4c(c3c(=O)[nH]2)CCCC4)n[nH]1,inactive
4,CCCCN(Cc1nc2ccccc2c(=O)[nH]1)C(=O)CN1C(=O)NC2(CCCCC2)C1=O,inactive
5,O=C(Oc1ccc2ccc(OC(=O)N3CCOCC3)cc2c1)N1CCOCC1,inactive
6,CCCn1nnnc1NCc1ccc(N2CCCC2)cc1,inactive
7,CCC1C(=O)NCCN1C(=O)CCc1nnc(CCc2ccc(OC)cc2)o1 (stereo not given),inactive
8,CN(C)S(=O)(=O)c1ccc(NC(=S)NC(=O)Cc2ccccc2)cc1,inactive
9,COCCn1nnnc1CN1CCC(NC(=O)Nc2cccc(OC)c2)CC1,inactive
10,COCCNC(=S)N(CCCO)Cc1cc2cc3c(cc2[nH]c1=O)OCCO3,inactive
11,O=C(O)C1C2CCC(C2)C1C(=O)Nc1cc(F)ccc1F (stereo not given),inactive
12,O=C(c1cc(-c2ccc3c(c2)OCO3)on1)N1CCN(c2ccc(F)cc2)CC1,inactive
13,O=C(Nc1ccc(Cl)c(Cl)c1)Nc1ccccc1C(=O)O,inactive
14,COc1ccc(Cl)cc1NC(=O)COC(=O)c1ccc(C)o1,inactive
15,c1cn2cc(CN3CCOCC3)nc2s1,inactive
16,CCC(=O)NCCc1nc(-c2ccccc2)no1,inactive
17,COc1cc(SC)ccc1C(=O)OCC(=O)NCC(C)C,inactive
18,Cc1ccc(OCCNC(=O)c2cccc(C)c2)cc1,inactive
19,O=S(=O)(Nc1ccc(-c2ccc3nncn3n2)cc1)c1ccc(Cl)s1,inactive
20,COCc1nnc(NS(=O)(=O)c2ccc(Br)cc2)s1,inactive
21,Cc1ccccc1NC(=O)Cc1nc(COC(=O)c2ccccn2)cs1,inactive
22,Cc1cc(C(=O)CSc2nnc(-c3ccco3)o2)c(C)n1CC1COc2ccccc2O1 (stereo not given),inactive
